According to paper PMC6586154 (Clinical Pharmacology in Drug Development, 2018):

Legend:
[1] = Ertugliflozin-sitagliptin drug-drug interaction study, plasma pharmacokinetics; format: in vivo, human; conditions: for AUC(0-inf): po
[2] = Ertugliflozin-metformin drug-drug interaction study, plasma pharmacokinetics
[3] = Ertugliflozin-simvastatin drug-drug interaction study, plasma pharmacokinetics
[4] = Ertugliflozin-glimepiride drug-drug interaction study, plasma pharmacokinetics; format: in vivo, human; conditions: for GMR (90% CI) Cmax, analyte Glimepiride: Test Ertugliflozin + Glimepiride / Reference Glimepiride; for Tmax / AUC(0-t) / Cmax / half-life: oral
OAT1 = conditions: cited from earlier work
OCT2 [5] = conditions: cited from earlier work
OATP1B1 = conditions: cited from earlier work
[6] = Ertugliflozin plasma PK summarized across all 4 DDI studies; format: in vivo; conditions: human, oral, 15 mg
OCT2 [7] = conditions: in vitro studies; cited from earlier work
OAT3 [8] = conditions: in vitro studies; cited from earlier work
[9] = test system: breast cancer resistance protein; conditions: at clinically relevant concentrations; cited from earlier work
OATP2B1 = conditions: cited from earlier work
P‐glycoprotein = conditions: at clinically relevant concentrations; cited from earlier work
[10] = Safety and tolerability across all 4 DDI studies; format: in vivo, human; conditions: single dose ertugliflozin 15 mg alone or in combination with sitagliptin, metformin, glimepiride, or simvastatin; healthy subjects
OCT1 = conditions: cited from earlier work
OAT3 [11] = conditions: cited from earlier work
[12] = cited from earlier work
OATP1B3 = conditions: cited from earlier work
[13] = simvastatin 40 mg coadministered with ertugliflozin 15 mg vs alone
[14] = both, human, plasma, oral, 15 mg

N[C@@H](CC(=O)N1CCn2c(nnc2C(F)(F)F)C1)Cc1cc(F)c(F)cc1F [Sitagliptin, reference compound]
GMR (90% CI) Cmax, analyte Sitagliptin ([1]; Test Ertugliflozin + Sitagliptin / Reference Sitagliptin): 101.7 (91.7, 112.8) %
half-life ([1]; both, human, plasma, oral, 100 mg): 660 ± 173 min
AUC(0-t) ([1]; human, plasma, oral, 100 mg): 6.95 µM·h
Cmax ([1]; human, plasma, oral, 100 mg): 814 nM
AUC(0-inf) ([1]; human, plasma, 100 mg): 7.02 µM·h

CN(C)C(=N)N=C(N)N [Metformin, reference compound]
GMR (90% CI) Cmax, analyte Metformin ([2]; Test Ertugliflozin + Metformin / Reference Metformin): 94.0 (82.9, 106.6) %
Metformin Tmax ([2]; plasma, Metformin 1000 mg alone (N = 18), median (range)): 2.00 (0.50–4.00) h

CCC(C)(C)C(=O)O[C@H]1C[C@@H](C)C=C2C=C[C@H](C)[C@H](CC[C@@H]3C[C@@H](O)CC(=O)O3)[C@H]21 [Simvastatin, reference compound]
Increase in geometric mean AUCinf of simvastatin [3, 13]: 24%
Increase in geometric mean Cmax of simvastatin [3, 13]: 19%

CCC(C)(C)C(=O)O[C@H]1C[C@@H](C)C=C2C=C[C@H](C)[C@H](CC[C@@H](O)C[C@@H](O)CC(=O)O)[C@H]21 [Simvastatin Acid, simvastatin acid]
Increase in geometric mean AUCinf of simvastatin acid [3, 13]: 30%
Increase in geometric mean Cmax of simvastatin acid [3, 13]: 16%

CCC1=C(C)CN(C(=O)NCCc2ccc(S(=O)(=O)NC(=O)N[C@H]3CC[C@H](C)CC3)cc2)C1=O [Glimepiride]
GMR (90% CI) Cmax, analyte Glimepiride [4]: 97.4 (71.1, 133.5) %
GMR (90% CI) Cmax, analyte Glimepiride ([4]; listed as glimepiride): 97.4%
Tmax ([4]; both, human, plasma): 1 to 12 h
AUC(0-t) ([4]; both, human, plasma, 1 mg): 218 ng·h/mL
Cmax ([4]; both, human, plasma, 1 mg): 34.4 ng/mL
half-life ([4]; both, human, plasma, 1 mg): 353 ± 167 min
AUC(0-inf) ([4]; both, human, plasma, po, 1 mg): 249 ng·h/mL
Intrasubject variability for Cmax of glimepiride ([4]; glimepiride 1 mg alone or with ertugliflozin 15 mg): 53.5%

CCOc1ccc(Cc2cc([C@]34OC[C@](CO)(O3)[C@@H](O)[C@H](O)[C@H]4O)ccc2Cl)cc1 [Ertugliflozin]
GMR (90% CI) Cmax, analyte Ertugliflozin ([4]; Test Ertugliflozin + Glimepiride / Reference Ertugliflozin): 98.2 (92.2, 104.6) %
AUC(0-t) ([4]; both, human, plasma, 15 mg): 1230 ng·h/mL
Cmax ([4]; both, human, plasma, 15 mg): 146 ng/mL
Tmax ([4]; both, human, plasma, 15 mg): 2 h
half-life ([4]; both, human, plasma, 15 mg): 638 ± 146 min
Substrate of OAT1 uptake transporter (OAT1): not a substrate
Substrate of OCT2 uptake transporter (OCT2 [5]): not a substrate
Substrate of OATP1B1 uptake transporter (OATP1B1): not a substrate
Tmax [6]: 1 to 3 h
half-life [6]: 638 to 758 min
Inhibition of OCT2 transporter (OCT2 [7]): weak inhibitor
Inhibition of OAT3 transporter (OAT3 [8]): weak inhibitor
Substrate of breast cancer resistance protein efflux transporter [9]: substrate
GMR (90% CI) Cmax, analyte Ertugliflozin ([1]; Test Ertugliflozin + Sitagliptin / Reference Ertugliflozin): 98.2 (91.2, 105.7) %
AUC(0-t) ([1]; human, plasma, oral, 15 mg): 1430 ng·h/mL
Cmax ([1]; human, plasma, oral, 15 mg): 270 ng/mL
Tmax ([1]; human, plasma, oral, 15 mg): 1 h
AUC(0-inf) ([1]; human, plasma, 15 mg): 1460 ng·h/mL
Substrate of OATP2B1 uptake transporter (OATP2B1): not a substrate
GMR (90% CI) Cmax, analyte Ertugliflozin ([3]; Test Ertugliflozin + Simvastatin / Reference Ertugliflozin): 105.2 (98.3, 112.5) %
AUC(0-t) ([3]; both, human, in vivo, 15 mg): 1380 ng·h/mL
Cmax ([3]; both, human, in vivo, 15 mg): 273 ng/mL
half-life ([3]; both, human, in vivo, 15 mg): 740 ± 184 min
Substrate of P‐glycoprotein efflux transporter (P‐glycoprotein): substrate
Tolerability [10]: well tolerated
Substrate of OCT1 uptake transporter (OCT1): not a substrate
GMR (90% CI) Cmax, analyte Ertugliflozin ([2]; Test Ertugliflozin + Metformin / Reference Ertugliflozin): 97.1 (88.8, 106.3) %
AUC(0-t) [2, 14]: 1380 ng·h/mL
Cmax [2, 14]: 279 ng/mL
Tmax [2, 14]: 1.02 h
half-life [2, 14]: 707 ± 140 min
Substrate of OAT3 uptake transporter (OAT3 [11]): not a substrate
Absolute (oral) bioavailability [12]: approximately 100%
Renal excretion of unchanged ertugliflozin ([12]; human, in vivo): 1.5 % of the administered dose
Contribution of glucuronidation to metabolic clearance ([12]; major metabolic pathway): 86%
Contribution of oxidative metabolism ([12]; minor pathway): 12%
Substrate of OATP1B3 uptake transporter (OATP1B3): not a substrate
